Test results reported in patent publication US7939064B2 (priority 2006, dated 2011).

System: transient cerebral focal ischemia (left middle cerebral artery occlusion)
Conditions: rat, in vivo

## C[C@]12N[C@H](Cc3ccccc31)c1ccccc12 [MK801, dizocilpine, reference compound]
  infarct volume relative to saline-treated control: 61.1%±8.6%
  reduction of focal ischemia / infarct size (summary statement): 40%
